The results in this text go back to patent publication US10179770B2, “Quinolines derivatives as novel anticancer agents” (GENOSCIENCE PHARMA, priority 2013, dated 2019).

Structures are written as SMILES. pEC50: −log10 of the molar value.

Broadly, the pEC50 is −log10 of the EC50, conventionally taken in molar units. In general, viability refers to a read-out of living cells in per cent, often relative to untreated cells.

The subject of one experiment is KG-1. Kind of experiment: EC50 determination in cancer cell lines. The format is cell-based. Particulars: Homo sapiens, 72 h. On the procedure: (§1) Compounds were added at different concentrations to each well, and cell cultures were incubated for 72 h. Vehicle (DMSO or H2O) was used as a control, and all compounds were tested in a constant percentage of vehicle. Cell outgrowth was measured using for adherent cells CellTiter […] Aqueous One Solution Cell Proliferation Assay (Promega) and for cell suspension, Sulforhodamine B colorimetric assay as described in Vichai et al. (Vichai, V. and Kirtikara, K. Nat. Protoc. 2006 (1) 1112-1116). Absorbance was measured using an Infinite F200 Pro or Sunrise TECAN plate reader.
(§2) The human melanoma cell line A375, colorectal carcinoma cell line HCT-116, hepatocellular carcinoma cell line HepG2 were cultured in Dulbecco's modified Eagle's medium supplemented with 10% fetal bovine serum and 1% Penicillin-Streptomycin. The human melanoma cell lines SK-MEL-28 and SK-MEL-5 were cultured in Minimum Essential Medium. The colorectal carcinoma cell lines HT-29 and Colo205 were respectively cultured in Mc Coy's and RPMI media. The human leukemia cell lines MV4-11 and KG-1 were cultured in Iscove's Modified Dulbecco's Media. The human leukemia cell line MOLM-14 was cultured in Minimum Essential Medium Alpha Medium supplemented with 10% Fetal Bovine Serum and 1% Penicillin-Streptomycin All culture media were supplemented with 10% fetal bovine serum and 1% Penicillin-Streptomycin except for MV4-11 cell line 20% fetal bovine serum and 1% Penicillin-Streptomycin. All the cell lines were maintained at 37° C. with 5% C02.
(§3) Briefly, adherent cells, A375, HCT-116, HepG2, SK-MEL-28, SK-MEL-5, HT-29 and Colo205 cells were respectively plated at 800, 5,000, 7,000, 2,500, 3,000-5,000, 5,000 or 5,000 cells per well onto 96-well plates in 90 μL of media per well and were allowed to grow overnight before the assay. For MV4-11 and KG-1 cells that grow in suspension, 40,000-60,000 cells were plated onto 96-well plates immediately before the assay. MOLM-14 cell line, that grow in suspension, 30,000 cells were plated onto 96-well plates immediately before the assay.
(§4) The cell growth measure was the same as described in example 51.
(§5) The experimental data are analyzed using a computer program, Graphpad Prism (GraphPad Software, Inc. La Jolla, Calif.) and EC50 values were determined as the dose of compound required to reduce absorbance values to 50% of the signal obtained for vehicle treated cell cultures and were a mean of at least two independent experiments except for EC50 values with (*) where […].

The subject of the next experiment is MV4-11. Description: EC50 determination in cancer cell lines. The class given is cell-based. The conditions noted are these: Homo sapiens, 72 h. On the procedure: as §1, §2, §3, §4, §5
The test system of another experiment is MOLM-14. Description: EC50 determination in cancer cell lines. The format is cell-based. Particulars: Homo sapiens, 72 h. The method, then:
as §1, §2, §3, §4, §5

Another experiment relates to SK-MEL-5. Kind of experiment: EC50 determination in cancer cell lines. The class given is cell-based. Particulars: Homo sapiens, 72 h. The method, then:
as §1, §2, §3, §4, §5

Another experiment has as its system SK-MEL-28. Description: EC50 determination in cancer cell lines. The format is cell-based. The conditions noted are these: Homo sapiens, 72 h. On the procedure: as §1, §2, §3, §4, §5
Another experiment has as its system A-375. Kind of experiment: EC50 determination in cancer cell lines. The class given is cell-based, human. The conditions noted are these: Homo sapiens, A-375, 72 h. On the procedure: as §1, §2, §3, §4, §5
Experiment [1] concerns PBMC Healthy voluntary donor. Kind of experiment: Cell growth inhibition assay, PBMC of healthy donors. Particulars: Homo sapiens, PBMC. The class given is cell-based, human. The method, then: (§6) Each compound was added at different concentrations (combinations of six concentrations) to each well, and cell cultures were incubated for 48 h. Vehicle (H2O) was used as a control, and all compounds were tested in a constant percentage of vehicle. Cell outgrowth was measured using the CellTiter-Glo luminescent cell viability assay as described by the manufacturer (Promega, Ref G7571 Madison, Wis., USA) using a Centro (Berthold, France) plate reader. In each experiment, each point represents the average of triplicates in cell culture. The experimental data are analyzed using a computer program, Graphpad Prism (GraphPad Software, Inc.

For experiment [2], the system named is patient derived acute myeloid leukemia (AML) cell lines. Description: Cell growth inhibition assay, patient derived AML cells. The class given is cell-based, human. Particulars: Homo sapiens, 48 h. The method, then: as §6, with “The patient derived acute myeloid leukemia (AML) cells were obtained after written informed consent under the Institut Paoli Calmette (IPC) institutional review board approval and under the strict compliance of the Helsinki declaration on medical research involving human subjects. […] Each” for “Each”

The test system of experiment [3] is HCT-116. Description: Cell proliferation assay at 10 μM. The format is cell-based. The conditions noted are these: Homo sapiens, HCT-116, 72 h, read-out: Cell viability observed at 10 μM. The method in brief:
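A375 and HCT-116 cells grown in DMEM with 10% FBS, seeded overnight, then exposed to compound at 10 μM for 72 h at 37 °C, 5% CO2 against vehicle control. Outgrowth read by MTS (CellTiter 96 Aqueous One) absorbance; each point the mean of two replicates.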

The next experiment concerns HT-29. Description: EC50 determination in cancer cell lines. The class given is cell-based. The conditions noted are these: Homo sapiens, 72 h, * n>2. The method, then: as §1, §2, §3, §4, §5
The next experiment deals with HepG2. Description: EC50 determination in cancer cell lines. The class given is cell-based, human. Particulars: Homo sapiens, HepG2, 72 h. The method, then:
as §1, §2, §3, §4, §5

Experiment [4] has as its system HCT-116. Description: EC50 determination in cancer cell lines. Particulars: Homo sapiens, HCT-116, 72 h. The format is cell-based, human. The method, then: as §1, §2
Briefly, adherent cells, A375, HCT-116, HepG2, SK-MEL-28, SK-MEL-5, HT-29 and Colo205 cells were respectively plated at 800, 5,000, 7,000, 2,500, 3,000-5,000, 5,000 or 5,000 cells per well onto 96-well plates in 90 μL of media per well and were allowed to grow overnight before the assay. For MV4-11 and KG-1 cells that grow in suspension, 40,000-60,000 cells were plated onto 96-well plates immediately before the assay. MOLM-14 cell line, that grow in suspension, 30,000 cells were plated onto 96-well plates immediately before the assay. […]
as §5

For the compound `CC(C)(C)NC1CCN(c2cc(-c3ccc(Cl)cc3)nc3ccccc23)CC1.Cl.Cl` [XII-4, 2-(4-chloro-phenyl)-4-(4-N-tert-butylamino-piperidin-1-yl)quinoline dihydrochloride], the pEC50 in the experiment with KG-1 is 5.40; with MV4-11, 5.70; in the experiment on MOLM-14, 5.52; with SK-MEL-5, 5.30; in the experiment on SK-MEL-28, 5.52; with A-375, 5.30. Besides, the pEC50 in [1] (PBMC Healthy voluntary donor 1) was 4.37; in [1] (PBMC Healthy voluntary donor 2), 4.82; in experiment [2] (Patient 3, subtype Tri8) it was 5.30; in experiment [2] (Patient 8, subtype FLT3−), 4.68; in experiment [2] (Patient 9, subtype FLT3+), below 4.40; in [2] (Patient 10, subtype Inv 3) it was 4.60. The pEC50 in experiment [2] (Patient 12, subtype 5 & 7) was below 4.40; in experiment [2] (Patient 13, subtype MLL), 4.57; in experiment [2] (Patient 16, subtype Inv 3), 4.72. The viability at 10 µM with HCT-116 [3] was below 20%.

Turning to `Cc1ccc(-c2cc(N3CCC(NC(C)(C)C)CC3)c3ccccc3n2)cc1.Cl.Cl` [XIII-8, 2-(4-methyl-phenyl)-4-(4-N-tert-butylamino-piperidin-1-yl)quinoline dihydrochloride], the pEC50 was 5.05 in the experiment on KG-1; 5.70 in the experiment with MV4-11; 4.80 in the experiment with HT-29; 5.52 with MOLM-14; 5.15 in the experiment with SK-MEL-5; 5.30 in the experiment with SK-MEL-28. Besides, the negative logarithm of the EC50 (pEC50) was 4.77 with HepG2; 5.22 in the experiment with A-375; 4.38 in experiment [1] (PBMC Healthy voluntary donor 1); 4.80 in [1] (PBMC Healthy voluntary donor 2); 4.82 in experiment [2] (Patient 3, subtype Tri8); 4.57 in experiment [2] (Patient 8, subtype FLT3−). Further, the negative logarithm of the EC50 (pEC50) in experiment [2] (Patient 9, subtype FLT3+) was 4.66; in [2] (Patient 10, subtype Inv 3), 4.46; in [2] (Patient 12, subtype 5 & 7) it was 4.68; in [2] (Patient 13, subtype MLL), 4.60; in experiment [2] (Patient 16, subtype Inv 3) it was 4.62; in the experiment with HCT-116 [4], 5.10. In the experiment with HCT-116 [3], the viability at 10 µM is below 20%.

For `CCN(CC)C1CCN(C(C)c2cc(-c3ccccc3)nc3ccccc23)CC1.Cl.Cl` (stereo not drawn) [XIX-3, 2-phenyl-4-{1-[4-(N,N-diethylamino)piperidin-1-yl]-eth-1-yl}quinoline dihydrochloride], the pEC50 is 4.85 in the experiment with KG-1; 5.05 in the experiment on MV4-11; 4.74 in the experiment with HT-29; 4.96 in the experiment with MOLM-14; 5.22 with SK-MEL-5; 5.22 with SK-MEL-28. Further, the pEC50 is 4.66 with HepG2; 5.05 with A-375; 4.68 in [1] (PBMC Healthy voluntary donor 2); 5.10 in experiment [2] (Patient 3, subtype Tri8); 4.68 in experiment [2] (Patient 8, subtype FLT3−); 4.74 in experiment [2] (Patient 9, subtype FLT3+). For the same compound, the negative logarithm of the EC50 (pEC50) in experiment [2] (Patient 10, subtype Inv 3) is 4.55; in experiment [2] (Patient 12, subtype 5 & 7) it was 4.80; in experiment [2] (Patient 13, subtype MLL), 4.80; in experiment [2] (Patient 16, subtype Inv 3) it was 4.66; with HCT-116 [4], 4.92. In addition, the viability at 10 µM with HCT-116 [3] fell in the range of 20 to 40%.

On to `CCN(CC)C1CCN(C(C)c2cc(-c3ccc4ccccc4c3)nc3ccccc23)CC1.Cl.Cl` (stereo not drawn) [XXIV-3, 2-(2-naphtyl)-4-{1-[4-(N,N-diethylamino)-piperidin-1-yl]-eth-1-yl}quinoline dihydrochloride], for which the pEC50 was 5.40 in the experiment on KG-1; 5.52 with MV4-11; 5.15 in the experiment on HT-29; 5.40 in the experiment on MOLM-14; 5.52 in the experiment with SK-MEL-5; 5.52 in the experiment with SK-MEL-28. In addition, the pEC50 is 4.96 with HepG2; 5.52 with A-375; 5.10 in experiment [1] (PBMC Healthy voluntary donor 1); 5.15 in experiment [1] (PBMC Healthy voluntary donor 2); 5.70 in experiment [2] (Patient 3, subtype Tri8); 5.00 in experiment [2] (Patient 8, subtype FLT3−). In addition, the pEC50 is 4.77 in experiment [2] (Patient 9, subtype FLT3+); 4.89 in experiment [2] (Patient 10, subtype Inv 3); 4.96 in experiment [2] (Patient 12, subtype 5 & 7); 5.10 in experiment [2] (Patient 13, subtype MLL); 5.22 in experiment [2] (Patient 16, subtype Inv 3); 5.40 in the experiment with HCT-116 [4]. Also, the viability at 10 µM in the experiment with HCT-116 [3] is below 20%.
